Results from US20050004014A1, “New compound” (FUJISAWA PHARMACEUTICAL CO., LTD., priority 2003, published 2005).

test system: Candida albicans FP-633; type: cell-based; conditions: FP-633, 24 h, pH 7.3
Procedure: In vitro antimicrobial activity of the object compound of Examples 1, 2, 3 and 4 disclosed later was determined by MICS in mouse serum as described below. The MICS in mouse serum were determined by the microdilution method using ICR mouse serum buffered with 20 mM HEPES buffer (pH 7.3) as a test medium. Inoculum suspension of 10^6 cells/ml were prepared by a hemocytometric procedure and diluted to obtain an inoculum size of approximately 1.0×10^3 cells/ml. Microplates were incubated at 37° C. for 24 hours in 5% CO2. The MICS were defined as the lowest concentrations at which no visible growth was observed.

Row | MIC | Structure (SMILES)
1 | <0.15 µg/mL | COc1cc(C[C@@H](O)[C@@H]2NC(=O)[C@@H]3C[C@@H](O)CN3C(=O)[C@H]([C@@H](C)O)NC(=O)[C@@H](NCc3ccc(-c4ccc(N5CCN([C@H]6CC[C@](OC)(C7CCCCC7)CC6)CC5)cc4)cc3)C[C@@H](O)CNC(=O)[C@@H]3[C@@H](O)[C@@H](C)CN3C(=O)[C@H]([C@H](O)CCN)NC2=O)ccc1O [Example 2]
2 | <0.15 µg/mL | COc1cc(C[C@@H](O)[C@@H]2NC(=O)[C@@H]3C[C@@H](O)CN3C(=O)[C@H]([C@@H](C)O)NC(=O)[C@@H](NCc3ccc(-c4nnc(-c5ccc(N6CCC(OC)(C7CCCCC7)CC6)cc5)s4)cc3)C[C@@H](O)CNC(=O)[C@@H]3[C@@H](O)[C@@H](C)CN3C(=O)[C@H]([C@H](O)CCNC(CO)CO)NC2=O)ccc1O [Example 3]
3 | <0.15 µg/mL | COc1cc(C[C@@H](O)[C@@H]2NC(=O)[C@@H]3C[C@@H](O)CN3C(=O)[C@H]([C@@H](C)O)NC(=O)[C@@H](NCc3ccc(-c4nnc(-c5ccc(N6CCN([C@H]7CC[C@@H](C)CC7)CC6)cc5)s4)cc3)C[C@@H](O)CNC(=O)[C@@H]3[C@@H](O)[C@@H](C)CN3C(=O)[C@H]([C@H](O)CCN)NC2=O)ccc1O [Example 1]
4 | <0.15 µg/mL | COc1cc(C[C@@H](O)[C@@H]2NC(=O)[C@@H]3C[C@@H](O)CN3C(=O)[C@H]([C@@H](C)O)NC(=O)[C@@H](NCc3ccc(-c4nnc(-c5ccc(N6CCN(C7CCCCC7)CC6)cc5)s4)cc3)C[C@@H](O)CNC(=O)[C@@H]3[C@@H](O)[C@@H](C)CN3C(=O)[C@H]([C@H](O)CCNC(CO)CO)NC2=O)ccc1O [Example 4]
